Reference: article PMC9823811, “Anti-Microbial Activity of Aliphatic Alcohols from Chinese Black Cardamom (Amomum tsao-ko) against Mycobacterium tuberculosis H37Rv” (Plants, 2022)
≈ marks a conversion by molar mass, not a printed value.

Columns and labels:
[1] = tested on: M. tuberculosis H37Rv (ATCC 27294); experiment: Microplate Alamar Blue Assay (MABA), MIC against replicating M. tuberculosis; format: cell-based, Mycobacterium tuberculosis; details: 7 days at 37 °C; for MIC: Mycobacterium tuberculosis, 168 h
[2] = tested on: non-replicating M. tuberculosis H37Rv_LuxABCDE; experiment: Low oxygen recovery assay (LORA), MIC against non-replicating M. tuberculosis; format: cell-based, Mycobacterium tuberculosis; details: for MIC: Mycobacterium tuberculosis; for MIC / MIC against M. tuberculosis H37Rv, LORA: non-replicating M. tuberculosis H37Rv, low oxygen
[3] = tested on: Vero cells (ATCC CRL-1586); details: African green monkey, 72 h
[4] = Cytotoxicity against Vero cells (resazurin); details: African green monkey
[5] = tested on: Vero cells (ATCC CRL-1586); experiment: Cytotoxicity against Vero cells (resazurin); details: Vero cells, 72 h
[6] = MIC = lowest concentration reducing fluorescence by 90%

| Compound | MIC [1, 6] | MIC ([1]; […]) | MIC [2] | IC50 at 72 h ([4]; Vero cells (ATCC CRL-1586)) | other results |
| --- | --- | --- | --- | --- | --- |
| OC/C=C/CCCCCCCO [Compound 2, (E)-2-decene-1,10-diol] | 29.7 µg/mL (≈ 172 µM) | > 20 µg/mL | 95.4 µg/mL (≈ 554 µM) | > 200 µg/mL | Vero cytotoxicity, percentage in parentheses after the IC50 bound [3]: 25% |
| OC/C=C/CCCC/C=C/CO [Compound 5, (2E,8E)-2,8-decadiene-1,10-diol] | 4.3 µg/mL (≈ 25.3 µM) | < 10 µg/mL | 5.9 µg/mL (≈ 34.7 µM) | 72.9 µg/mL (≈ 428 µM) |  |
| CC(=O)OC/C=C/CC/C=C/COC(C)=O [Compound 6, (2E,6E)-1,8-diacetoxy-2,6-octadiene] | 26.1 µg/mL (≈ 115 µM) | > 20 µg/mL | > 100 µg/mL | 76.8 µg/mL (≈ 339 µM) |  |
| CCCCCCC/C=C/C=O [Compound 7, (E)-decenal] | > 100 µg/mL |  | > 100 µg/mL |  |  |
| CCCCCCC/C=C/C(O)C(C)=O (stereo not drawn) [Compound 8, (E)-1-acetyl-2-decene-1-ol] | > 100 µg/mL |  | > 100 µg/mL |  |  |
| CCCCCCCCC/C=C/C(O)C(C)=O (stereo not drawn) [Compound 9, (E)-1-acetyl-2-dodecene-1-ol] | > 100 µg/mL |  | > 100 µg/mL |  |  |
| CC(C)=CCC/C(C)=C/CO [Compound 10, geraniol] |  | > 100 µg/mL | > 100 µg/mL |  |  |
| CC(=O)OC/C=C(\C)CCC=C(C)C [Compound 11, geranyl acetate] | 88.6 µg/mL | > 20 µg/mL | > 100 µg/mL |  | IC50 at 72 h [4]: > 200 µg/mL |
| C=C[C@](C)(O)CC/C=C(\C)CCC=C(C)C [Compound 12, (3R)-(E)-nerolidol] | > 100 µg/mL |  | > 100 µg/mL |  |  |
| NNC(=O)c1ccncc1 [Isoniazid, reference compound] | 0.03 µg/mL (≈ 0.219 µM) |  | > 18 µg/mL |  |  |
| CC(=O)NC[C@H]1CN(c2ccc(N3CCOCC3)c(F)c2)C(=O)O1 [Linezolid, reference compound] | 0.16 µg/mL (≈ 0.474 µM) |  | 0.62 µg/mL (≈ 1.84 µM) |  |  |
| CO[C@H]1/C=C/O[C@@]2(C)Oc3c(C)c(O)c4c(O)c(c(/C=N/N5CCN(C)CC5)c(O)c4c3C2=O)NC(=O)/C(C)=C\C=C\[C@H](C)[C@H](O)[C@@H](C)[C@@H](O)[C@@H](C)[C@H](OC(C)=O)[C@@H]1C [Rifampicin, reference compound] | 0.025 µg/mL (≈ 0.0304 µM) |  | 0.14 µg/mL (≈ 0.17 µM) | > 100 µg/mL |  |
| CC(=O)OC/C=C/CCCC/C=C/CO [Synthetic tsaokol A, tsaokol A] | 1.4 µg/mL (≈ 6.59 µM) |  |  | > 200 µg/mL | Vero cytotoxicity, percentage in parentheses after the IC50 bound [3]: 10%; Cytotoxicity against Vero Cells IC50 [5]: identical to those of the isolated tsaokol A (3) |
| (2E,8E)-1,10-diacetyl-2,8-decadiene-1,10-diol [Compound 4] |  |  |  |  | MIC against M. tuberculosis H37Rv, MABA [1, 6]: 1.1 µg/mL; MIC against M. tuberculosis H37Rv, MABA ([1]; […]): lower than 10 µg/mL; MIC against M. tuberculosis H37Rv, LORA [2]: 21.6 µg/mL; Cytotoxicity against Vero Cells IC50 [5]: 143.6 µg/mL |
| (2E,8E)-1-acetyl-2,8-decadiene-1,10-diol [Compound 3] |  |  |  |  | MIC against M. tuberculosis H37Rv, MABA [1, 6]: 0.6 µg/mL; MIC against M. tuberculosis H37Rv, MABA ([1]; […]): lower than 10 µg/mL; Ratio of non-replicating MIC (LORA) over replicating MIC (MABA) ([2]; LORA MIC relative to MABA MIC): only two-fold higher; MIC against M. tuberculosis H37Rv, LORA [2]: 1.4 µg/mL; Cytotoxicity against Vero Cells IC50 [5]: > 200 µg/mL |
| (E)-1-acetyl-8-decene-1,10-diol [Compound 1] |  |  |  |  | MIC against M. tuberculosis H37Rv, MABA [1, 6]: 10.2 µg/mL; MIC against M. tuberculosis H37Rv, MABA ([1]; […]): lower than 10 µg/mL; MIC against M. tuberculosis H37Rv, LORA [2]: 61.5 µg/mL; Cytotoxicity against Vero Cells IC50 [5]: > 200 µg/mL |
